Assay results from ChEMBL document CHEMBL4393671, “Design of a Cyclin G Associated Kinase (GAK)/Epidermal Growth Factor Receptor (EGFR) Inhibitor Set to Interrogate the Relationship of EGFR and GAK in Chordoma” (J Med Chem, 2019).
Calls of active or inactive are those of the source. No cut-off for these calls is given here.

Key:
[1] = cells; format: functional, cell-based; settings: Homo sapiens, UCH2, 72 h
Description: Antiproliferative activity against human UCH2 cells measured after 72 hrs by alamar blue assay

[2] = cells; format: ADME, cell-based; settings: Homo sapiens, WS1, 72 h
Description: Cytotoxicity against human WS1 cells measured after 72 hrs by alamar blue assay

[3] = cells; format: functional, cell-based; settings: Homo sapiens, UCH1, 72 h
Description: Antiproliferative activity against human UCH1 cells measured after 72 hrs by alamar blue assay

[4] = target: T1, Cyclin-G-associated kinase (Homo sapiens, UniProt O14976); experiment: Inhibition of tracer 5 binding to human N-terminal nano luciferase-fused GAK expressed in HEK293 cells measured after 2 hrs by nanoBRET assay; format: cell-based
T1 sequence (O14976 whole entry): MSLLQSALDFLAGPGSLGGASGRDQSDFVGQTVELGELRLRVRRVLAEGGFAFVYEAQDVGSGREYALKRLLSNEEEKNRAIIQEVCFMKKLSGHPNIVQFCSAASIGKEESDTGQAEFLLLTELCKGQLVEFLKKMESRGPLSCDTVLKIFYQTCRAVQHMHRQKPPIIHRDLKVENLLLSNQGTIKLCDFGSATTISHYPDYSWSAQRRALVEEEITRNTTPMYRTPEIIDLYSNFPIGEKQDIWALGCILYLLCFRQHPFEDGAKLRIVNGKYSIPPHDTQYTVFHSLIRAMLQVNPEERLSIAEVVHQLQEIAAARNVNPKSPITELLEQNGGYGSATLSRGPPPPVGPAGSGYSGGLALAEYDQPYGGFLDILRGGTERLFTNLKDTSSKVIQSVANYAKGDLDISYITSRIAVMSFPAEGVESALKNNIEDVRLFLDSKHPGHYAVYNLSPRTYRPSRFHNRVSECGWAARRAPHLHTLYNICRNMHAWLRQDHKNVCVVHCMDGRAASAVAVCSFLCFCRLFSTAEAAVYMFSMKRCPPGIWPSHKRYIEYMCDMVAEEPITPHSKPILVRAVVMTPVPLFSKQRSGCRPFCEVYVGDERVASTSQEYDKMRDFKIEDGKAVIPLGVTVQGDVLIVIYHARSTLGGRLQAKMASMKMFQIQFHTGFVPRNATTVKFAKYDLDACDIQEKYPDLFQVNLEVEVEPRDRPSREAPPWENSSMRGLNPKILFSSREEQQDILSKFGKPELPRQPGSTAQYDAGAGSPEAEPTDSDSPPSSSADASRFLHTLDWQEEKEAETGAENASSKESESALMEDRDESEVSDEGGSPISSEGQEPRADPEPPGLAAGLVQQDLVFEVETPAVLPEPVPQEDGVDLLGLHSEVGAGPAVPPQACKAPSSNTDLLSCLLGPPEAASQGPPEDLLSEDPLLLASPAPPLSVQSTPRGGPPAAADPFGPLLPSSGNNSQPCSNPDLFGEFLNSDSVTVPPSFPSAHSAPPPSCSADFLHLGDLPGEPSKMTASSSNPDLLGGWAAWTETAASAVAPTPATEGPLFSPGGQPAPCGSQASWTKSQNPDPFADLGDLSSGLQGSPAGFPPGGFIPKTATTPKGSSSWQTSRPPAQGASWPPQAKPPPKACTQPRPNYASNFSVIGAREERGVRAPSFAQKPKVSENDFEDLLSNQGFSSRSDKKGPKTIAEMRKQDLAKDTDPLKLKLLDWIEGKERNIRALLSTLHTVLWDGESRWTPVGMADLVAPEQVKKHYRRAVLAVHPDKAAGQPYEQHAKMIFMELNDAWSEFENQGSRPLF

[5] = target: T2, Epidermal growth factor receptor (Homo sapiens, UniProt P00533); format: cell-based;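 for IC50: human A431 cells pretreated 90 min, then EGF stimulated, sandwich ELISA measured decrease in EGF-induced receptor autophosphorylation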;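 for Kd: KINOMEscan competition binding with recombinant partial wild-type human EGFR (residues R669–V1011) produced in bacteria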
Description: Inhibition of EGFR in human A431 cells assessed as reduction in EGF-stimulated EGFR autophosphorylation preincuabted for 90 mins followed by EGF-stimulation by sandwich-ELISA

[6] = target: T3, Cyclin-G-associated kinase (Homo sapiens) (UniProt O14976); experiment: Inhibition of tracer 5 binding to human N-terminal nano luciferase-fused GAK expressed in HEK293 cells at 5 uM measured after 2 hrs by nanoBRET assay relative to control; format: cell-based
T3 sequence (whole entry): T1 sequence (O14976 whole entry)

[7] = target: T2, Epidermal growth factor receptor
Description: Binding affinity to wild-type human partial length EGFR (R669 to V1011 residues) expressed in bacterial expression system by Kinomescan method

[8] = target: T1, Cyclin-G-associated kinase; experiment: Binding affinity to wild-type human partial length GAK (G13 to Y338 residues) expressed in bacterial expression system by Kinomescan method
[9] = cells; format: functional, cell-based; settings: Homo sapiens, 72 h
Description: Antiproliferative activity against human UCH12 cells measured after 72 hrs by alamar blue assay

[10] = target: Mitotic checkpoint serine/threonine-protein kinase BUB1 (Homo sapiens) (UniProt O43683); experiment: Binding affinity to BUB1 in human SUM159 cell lysates by multiplexed inhibitor bead profiling-based LC-MS/MS analysis; format: subcellular; settings: Lysate
[11] = cells; format: functional, cell-based; settings: Homo sapiens, 72 h; remark: listed apart in the source
Description: Antiproliferative activity against human CH22 cells measured after 72 hrs by alamar blue assay

[12] = target: Pyruvate kinase PKM (Homo sapiens) (UniProt P14618); experiment: Binding affinity to PKM in human SUM159 cell lysates by multiplexed inhibitor bead profiling-based LC-MS/MS analysis; format: subcellular; settings: Lysate
[13] = cells; format: functional, cell-based; settings: Homo sapiens, 72 h; remark: listed apart in the source
Description: Antiproliferative activity against human UCH7 cells measured after 72 hrs by alamar blue assay

[14] = target: T3, Cyclin-G-associated kinase (Homo sapiens); experiment: Binding affinity to GAK in human SUM159 cell lysates by multiplexed inhibitor bead profiling-based LC-MS/MS analysis; format: subcellular; settings: Lysate
[15] = cells; format: functional, cell-based; settings: Homo sapiens, 72 h; remark: listed apart in the source
Description: Antiproliferative activity against human UCH14 cells measured after 72 hrs by alamar blue assay

[16] = cells; format: functional, cell-based; settings: Homo sapiens, 72 h; remark: listed apart in the source
Description: Antiproliferative activity against human UMCHOR1 cells measured after 72 hrs by alamar blue assay

[17] = target: T2, Epidermal growth factor receptor; experiment: Binding affinity to wild-type human partial length EGFR (R669 to V1011 residues) expressed in bacterial expression system at 1 uM by Kinomescan method relative to control
[18] = target: T2, Epidermal growth factor receptor; experiment: Inhibition of EGFR in human UCH1 cells assessed as reduction in EGF-induced EGFR phosphorylation at Y1068 residue at 10 uM preincubated for 4 hrs followed by EGF--stimulation and measured after 15 mins by Western blot analysis relative to control; format: cell-based
[19] = Effect on total EGFR expression in human UCH1 cells at 1 to 10 uM measured after 4 hrs by Western blot analysis; format: ADME, cell-based
[20] = target: T2, Epidermal growth factor receptor; experiment: Inhibition of EGFR in human UCH1 cells assessed as reduction in EGF-induced EGFR phosphorylation at Y1068 residue at 1 uM preincubated for 4 hrs followed by EGF--stimulation and measured after 15 mins by Western blot analysis relative to control; format: cell-based
[21] = Effect on total EGFR expression in human UCH2 cells at 1 to 10 uM measured after 4 hrs by Western blot analysis; format: ADME, cell-based
[22] = target: T2, Epidermal growth factor receptor; experiment: Inhibition of EGFR in human UCH2 cells assessed as reduction in EGF-induced EGFR phosphorylation at Y1068 residue at 1 uM preincubated for 4 hrs followed by EGF--stimulation and measured after 15 mins by Western blot analysis relative to control; format: cell-based
[23] = target: T2, Epidermal growth factor receptor; experiment: Inhibition of EGFR in human UCH2 cells assessed as reduction in EGF-induced EGFR phosphorylation at Y1068 residue at 10 uM preincubated for 4 hrs followed by EGF--stimulation and measured after 15 mins by Western blot analysis relative to control; format: cell-based

T2 sequence (P00533 whole entry, the tested form may be a part): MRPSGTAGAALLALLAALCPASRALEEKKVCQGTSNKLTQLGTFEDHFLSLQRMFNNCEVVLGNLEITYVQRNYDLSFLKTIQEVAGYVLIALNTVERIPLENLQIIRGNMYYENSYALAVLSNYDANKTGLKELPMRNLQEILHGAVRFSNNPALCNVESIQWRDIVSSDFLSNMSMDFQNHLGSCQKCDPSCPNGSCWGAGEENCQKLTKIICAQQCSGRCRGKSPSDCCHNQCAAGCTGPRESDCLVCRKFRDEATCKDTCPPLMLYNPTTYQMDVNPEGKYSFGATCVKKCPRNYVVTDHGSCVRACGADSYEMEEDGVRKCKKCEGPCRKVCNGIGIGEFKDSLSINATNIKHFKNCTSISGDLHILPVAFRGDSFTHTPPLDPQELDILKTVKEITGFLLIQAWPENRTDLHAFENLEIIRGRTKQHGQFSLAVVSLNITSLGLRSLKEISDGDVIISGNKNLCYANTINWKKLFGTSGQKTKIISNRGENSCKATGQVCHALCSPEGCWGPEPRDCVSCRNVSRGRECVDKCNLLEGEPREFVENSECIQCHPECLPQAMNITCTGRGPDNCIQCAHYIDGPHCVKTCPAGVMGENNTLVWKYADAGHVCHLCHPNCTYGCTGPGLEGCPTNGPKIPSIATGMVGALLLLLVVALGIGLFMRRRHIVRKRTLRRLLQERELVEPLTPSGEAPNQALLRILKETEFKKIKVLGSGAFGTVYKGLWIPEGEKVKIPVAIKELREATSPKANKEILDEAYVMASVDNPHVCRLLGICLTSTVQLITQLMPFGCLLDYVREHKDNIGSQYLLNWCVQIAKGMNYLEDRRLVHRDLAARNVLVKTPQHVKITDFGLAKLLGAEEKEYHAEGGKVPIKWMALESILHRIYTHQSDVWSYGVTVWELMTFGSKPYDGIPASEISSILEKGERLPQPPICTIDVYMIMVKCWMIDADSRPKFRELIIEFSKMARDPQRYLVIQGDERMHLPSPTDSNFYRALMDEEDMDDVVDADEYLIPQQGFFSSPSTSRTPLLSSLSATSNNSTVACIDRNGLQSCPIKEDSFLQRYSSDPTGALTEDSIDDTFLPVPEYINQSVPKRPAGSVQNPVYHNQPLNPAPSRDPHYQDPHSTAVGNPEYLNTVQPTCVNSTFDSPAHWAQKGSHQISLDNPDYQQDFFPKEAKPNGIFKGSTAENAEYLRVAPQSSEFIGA
Sequence of Mitotic checkpoint serine/threonine-protein kinase BUB1 (Homo sapiens) (O43683 whole entry, looked up): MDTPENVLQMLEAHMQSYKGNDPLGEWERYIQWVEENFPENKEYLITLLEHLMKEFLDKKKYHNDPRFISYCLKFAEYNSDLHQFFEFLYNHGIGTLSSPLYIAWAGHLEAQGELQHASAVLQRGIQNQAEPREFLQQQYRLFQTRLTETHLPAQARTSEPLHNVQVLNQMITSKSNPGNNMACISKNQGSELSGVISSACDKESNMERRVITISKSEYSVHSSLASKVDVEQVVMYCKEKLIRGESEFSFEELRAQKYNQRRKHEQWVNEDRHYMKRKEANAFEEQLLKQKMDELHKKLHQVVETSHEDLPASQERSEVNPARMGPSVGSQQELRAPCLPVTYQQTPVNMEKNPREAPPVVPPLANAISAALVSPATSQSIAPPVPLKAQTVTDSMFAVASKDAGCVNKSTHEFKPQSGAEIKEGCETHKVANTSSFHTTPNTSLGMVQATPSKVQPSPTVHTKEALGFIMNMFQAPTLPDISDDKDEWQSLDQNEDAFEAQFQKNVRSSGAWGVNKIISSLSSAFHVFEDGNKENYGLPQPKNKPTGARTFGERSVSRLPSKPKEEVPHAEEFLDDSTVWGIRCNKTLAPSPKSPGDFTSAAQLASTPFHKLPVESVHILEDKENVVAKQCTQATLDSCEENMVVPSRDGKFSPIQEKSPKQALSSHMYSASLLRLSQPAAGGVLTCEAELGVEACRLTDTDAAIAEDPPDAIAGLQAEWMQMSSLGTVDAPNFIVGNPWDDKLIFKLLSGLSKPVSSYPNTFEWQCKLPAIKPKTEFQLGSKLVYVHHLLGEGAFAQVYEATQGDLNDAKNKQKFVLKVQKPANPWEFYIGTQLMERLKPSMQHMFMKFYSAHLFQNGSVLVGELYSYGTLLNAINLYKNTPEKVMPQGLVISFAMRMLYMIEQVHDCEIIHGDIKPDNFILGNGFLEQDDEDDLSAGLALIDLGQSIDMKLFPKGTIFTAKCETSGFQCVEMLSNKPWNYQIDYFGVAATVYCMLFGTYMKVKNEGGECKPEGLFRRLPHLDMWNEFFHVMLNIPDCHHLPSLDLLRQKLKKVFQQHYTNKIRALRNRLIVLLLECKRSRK
Sequence of Pyruvate kinase PKM (Homo sapiens) (P14618 2-531 limits assumed): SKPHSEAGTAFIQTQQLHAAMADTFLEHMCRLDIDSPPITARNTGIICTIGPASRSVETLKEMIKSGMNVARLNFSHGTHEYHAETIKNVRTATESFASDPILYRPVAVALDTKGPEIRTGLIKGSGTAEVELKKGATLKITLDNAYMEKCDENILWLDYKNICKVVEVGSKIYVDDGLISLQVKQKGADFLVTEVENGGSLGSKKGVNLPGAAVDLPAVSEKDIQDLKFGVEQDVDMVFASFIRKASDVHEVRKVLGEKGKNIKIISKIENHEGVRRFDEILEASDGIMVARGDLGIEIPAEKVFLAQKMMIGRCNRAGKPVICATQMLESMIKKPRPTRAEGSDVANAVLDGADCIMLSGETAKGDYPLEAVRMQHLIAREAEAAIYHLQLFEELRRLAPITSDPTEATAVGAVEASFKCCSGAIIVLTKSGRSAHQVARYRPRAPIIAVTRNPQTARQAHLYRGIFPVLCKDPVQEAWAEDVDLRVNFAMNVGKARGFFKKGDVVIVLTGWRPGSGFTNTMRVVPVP

SMILES	IC50 [1]	IC50 [2]	IC50 [3]	IC50 [4]	IC50 [5]	Kd [7]	Kd [8]	other results
COc1cc2ncnc(Nc3cccc(Br)c3)c2cc1OC	26 µM	9.7 µM	0.66 µM	0.26 µM				
COc1cc2ncnc(Nc3ccc(OCc4cccc(F)c4)c(Cl)c3)c2cc1OC	> 50 µM	> 10 µM	13 µM		< 0.015 µM	0.0013 µM	5 µM	inhibition [6]: 12%
CC(C)(C)S(=O)(=O)c1cc2c(Nc3ccc4scnc4c3)ncnc2cc1OCCO	30 µM	> 50 µM	> 50 µM		> 50 µM			inhibition [6]: 0%
COc1cc2ncc(C#N)c(Nc3cc(OC)c(OC)c(OC)c3)c2cc1OC	> 10 µM	> 50 µM	11 µM	0.0024 µM	7.1 µM	0.0074 µM	0.00042 µM	
COCCOc1cc2ncnc(Nc3cc(OC)c(OC)c(OC)c3)c2cc1OCCOC	> 50 µM	> 50 µM	25 µM	2.6 µM	2.4 µM	0.053 µM	0.15 µM	
COc1cc(N(C)c2ccnc3ccc(C(F)(F)F)cc23)cc(OC)c1OC	> 50 µM	> 50 µM	> 50 µM		2.2 µM			inhibition [6]: 7%
COc1cc2nccc(Nc3cccc(Br)c3)c2cc1OC	7.9 µM	2.9 µM	3.6 µM	0.51 µM			0.24 µM	IC50 [9]: > 50 µM; Activity [10]: Active; IC50 [11]: 6.5 µM; Activity [12]: Active; IC50 [13]: > 50 µM; Activity [14]: Active; IC50 [15]: > 50 µM
C#Cc1cccc(Nc2ccnc3cc(OCCOC)c(OCCOC)cc23)c1	16 µM	12 µM	7.6 µM		0.34 µM	0.39 µM	1.2 µM	
COc1cc2nccc(Nc3cc(OC)c(OC)c(OC)c3)c2cc1OC	25 µM	14 µM	11 µM	0.023 µM	27 µM	0.41 µM		IC50 [9]: 33 µM; IC50 [16]: 24 µM; IC50 [11]: 12 µM; IC50 [13]: 30 µM; IC50 [15]: 19 µM
COc1cc(Nc2ccnc3ccc(Br)cc23)cc(OC)c1OC	> 50 µM	11 µM	> 50 µM		> 50 µM			Activity [17]: < 50%
C#Cc1cccc(Nc2ncnc3cc(OC)c(OC)cc23)c1	> 50 µM	4.4 µM	0.92 µM	0.072 µM		0.00055 µM	0.0068 µM	IC50 [9]: > 50 µM; inhibition [18]: 100%; IC50 [16]: 18 µM; Activity [19]: Non-Toxic; inhibition [20]: 63.4%; Activity [21]: Non-Toxic; IC50 [11]: > 50 µM; IC50 [13]: 23 µM; Activity [14]: Active; inhibition [22]: 100%; inhibition [23]: 100%; IC50 [15]: > 50 µM
COc1cc(Nc2ccnc3ccc(C(F)(F)F)cc23)cc(OC)c1OC	33 µM	21 µM	> 50 µM		> 50 µM			Activity [17]: < 50%
COc1cc2ncc(C#N)c(Nc3cccc(Br)c3)c2cc1OC	> 50 µM	14 µM	8.8 µM	0.13 µM	0.09 µM	0.0024 µM	0.012 µM	
COc1cc2ncnc(Nc3cc(OC)c(OC)c(OC)c3)c2cc1OC	> 10 µM	28 µM	7.3 µM	0.35 µM			0.01 µM	
COc1cc(Nc2cc(C)nc3ccc(C(F)(F)F)cc23)cc(OC)c1OC	> 50 µM	49 µM	37 µM		> 50 µM			inhibition [6]: 0%
COc1cc(Nc2ncnc3ccc(C(F)(F)F)cc23)cc(OC)c1OC	> 50 µM	45 µM	50 µM		> 50 µM	6.1 µM	0.19 µM	inhibition [6]: 60%
C#Cc1cccc(Nc2c(C#N)cnc3cc(OC)c(OC)cc23)c1	> 50 µM	> 50 µM	17 µM	0.031 µM	0.061 µM	0.0018 µM	0.0026 µM	
